The text below walks through data of patent US12065436B2, “Cardiac sarcomere inhibitors” (Cytokinetics, Inc., priority 2018, dated 2024).

Test [1] has as its system rat cardiac contractility (left ventricle fractional shortening). Nature of the test: Echocardiography of acute effect on rat cardiac contractility, oral gavage. The class given is in vivo, Sprague Dawley rats. As to conditions: for inhibition in vivo at 6 mg/kg: oral gavage. The gist of the method: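 Male Sprague Dawley rats under isoflurane (1-3%) anesthesia had three pre-dose baseline M-mode images of the left ventricle (parasternal long-axis view) taken at 1 minute intervals. Compound in 0.5% HPMC 2910: 0.1% Tween 80 suspension was then given as a single oral gavage dose (5 mL/kg). Fractional shortening was measured at chosen time points over 24 hours, with plasma concentrations sampled concurrently.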

The test system is the same in test [2]. Nature of the test: Echocardiography of acute effect on rat cardiac contractility, continuous IV infusion. The format is in vivo, Sprague Dawley rats. As to conditions: Rattus norvegicus, plasma concentration at which fractional shortening is 50% of pre-dose baseline, estimated, read-out: IC50 (Mean ± S.D.). The method, then:
Assessment of in vivo cardiac function by echocardiography was performed in male Sprague Dawley rats under isoflurane (1-3%) anesthesia. 2-D M-mode images of the left ventricle were acquired in the parasternal long-axis view before, during, and after administration of compounds by continuous IV infusion or oral gavage. In vivo fractional shortening was determined by M-mode image analysis with the following calculation: ((End diastolic diameter−end systolic diameter)/end diastolic diameter×100). For continuous IV infusion experiments, three pre-dose baseline M-mode images were taken at 1 minute intervals prior to infusion of compound. Compounds were formulated in 50% Propylene Glycol (PG): 16% Captisol: 10% dimethylacetamide (DMA) and delivered via a jugular vein catheter at the rate of 1 mL/kg/h. During infusion, M-mode images were taken at 5 minute intervals. The infusion stopped when fractional shortening reached up to a 60% reduction from baseline. Blood samples were taken to determine the plasma concentration of the compounds. Data was reported as an estimated IC50 value, which is the concentration at which fractional shortening is 50% of the pre-dose baseline contractility.

Test [3] concerns adult cardiac ventricular rat myocytes. The experiment in a line: Adult ventricular myocyte contractility (fractional shortening). The class given is cell-based. Particulars: 5 min, 5 μM compound, 5 min perfusion, read-out: % FS (% reduction from baseline) ± SEM. The method, then: Adult male Sprague-Dawley rats were anesthetized and the hearts were quickly excised, rinsed and the ascending aorta was cannulated. Continuous retrograde perfusion was initiated on the hearts at a perfusion pressure of 60 cm H2O. Hearts were first perfused with a nominally Ca^2+-free modified Krebs solution of the following composition: 113 mM NaCl, 4.7 mM KCl, 0.6 mM KH2PO4, 0.6 mM Na2HPO4, 1.2 mM MgSO4, 12 mM NaHCO3, 10 mM KHCO3, 30 mM taurine, 5.5 mM glucose and 10 mM Hepes (all Sigma). This medium is not recirculated and is continually aerated with a 95% O2/5% CO2 mixture. After approximately 3 minutes the heart was perfused with a modified Krebs buffer supplemented with collagenase (Worthington) and 12.5 μM final calcium concentration. The heart was removed from the cannulae after the heart appeared blanched and soft in appearance. The atria and vessels were removed and the ventricles were gently dissected into smaller pieces with forceps. The tissue was homogenized by repeated pipette trituration and the collagenase reaction was stopped by 10% bovine calf serum (BCS), sedimentation and resuspension in perfusion buffer containing 5% BCS and 12.5 uM CaCl2). Myocytes were made calcium tolerant by stepwise addition of a CaCl2) solution to a final concentration of 1.2 mM. Cells were then washed and resuspended in Tyrode's buffer (137 mM NaCl, 3.7 mM KCl, 0.5 mM MgCl, 11 mM glucose, 4 mM Hepes, and 1.2 mM CaCl2), pH 7.4). Cells were kept for 60 min at 37° C. prior to initiating experiments and used within 5 hrs of isolation. […] Additionally, only cells whose basal contractility was between 3 and 8% were used in subsequent experiments with compounds.
Aliquots of myocytes in Tyrode's buffer were placed in perfusion chambers (series 20 RC-27NE; Warner Instruments) complete with heating platforms. Myocytes were allowed to attach, the chambers were heated to 37° C., and the cells were perfused with 37° C. Tyrode's buffer. Myocytes were field stimulated at 1 Hz in with platinum electrodes (20% above threshold). Only cells that had clear striations and were quiescent prior to pacing were used for contractility experiments. To determine basal contractility, myocytes were imaged through a 40× objective. […] Once cell contraction was stable over time, test compounds (0.01-15 μM) were perfused into the chambers on the myocytes for 5 minutes. Contractility of the myocytes and contraction and relaxation velocities were then recorded using edge detection.
Five or more individual myocytes were tested per compound from two or more different myocyte preparations. For each cell, twenty or more contractility transients at basal (defined as 1 min prior to compound infusion) and after compound addition (defined as 5 min after starting compound perfusion), were averaged and compared. These average transients were analyzed using the IonWizard software (IonOptix) to determine changes in diastolic length and fractional shortening. Fractional shortening was calculated as: ((resting length−length at peak contraction) divided by the resting length). The percent change in fractional shortening from baseline was calculated as: ((post-dose fractional shortening/basal fractional shortening)*100). The percent reduction in fractional shortening from baseline was calculated as: (100−percent change in fractional shortening from baseline). Maximum contraction and relaxation velocities (um/sec) was also determined. Results from individual cells are averaged and the SEM calculated.

Test [4] addresses bovine cardiac myofibrils (full-length cardiac myosin ATPase in the native sarcomere) (Bos taurus (Bovine), UniProt Q9BE39). The experiment in a line: Skinned bovine cardiac myofibril ATPase assay (PK/LDH-coupled). The class given is biochemical. Particulars: Ca2+ activating to 75% of maximal rate. The gist of the method: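 Inhibition of steady-state ATPase read at 340 nm through a PK/LDH-coupled NADH system (0.5 mM NADH, 1.5 mM PEP). Detergent-skinned bovine cardiac myofibrils, 1 mg/mL, were tested at pH 6.8 in PIPES/MgCl2 with 50 μM ATP and calcium adjusted to give pCa50 or pCa75 activation.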

The structures appear in SMILES notation. Where two headings read alike, the source gives them in different places.

Chain of bovine cardiac myofibrils (full-length cardiac myosin ATPase in the native sarcomere) (Q9BE39 whole entry): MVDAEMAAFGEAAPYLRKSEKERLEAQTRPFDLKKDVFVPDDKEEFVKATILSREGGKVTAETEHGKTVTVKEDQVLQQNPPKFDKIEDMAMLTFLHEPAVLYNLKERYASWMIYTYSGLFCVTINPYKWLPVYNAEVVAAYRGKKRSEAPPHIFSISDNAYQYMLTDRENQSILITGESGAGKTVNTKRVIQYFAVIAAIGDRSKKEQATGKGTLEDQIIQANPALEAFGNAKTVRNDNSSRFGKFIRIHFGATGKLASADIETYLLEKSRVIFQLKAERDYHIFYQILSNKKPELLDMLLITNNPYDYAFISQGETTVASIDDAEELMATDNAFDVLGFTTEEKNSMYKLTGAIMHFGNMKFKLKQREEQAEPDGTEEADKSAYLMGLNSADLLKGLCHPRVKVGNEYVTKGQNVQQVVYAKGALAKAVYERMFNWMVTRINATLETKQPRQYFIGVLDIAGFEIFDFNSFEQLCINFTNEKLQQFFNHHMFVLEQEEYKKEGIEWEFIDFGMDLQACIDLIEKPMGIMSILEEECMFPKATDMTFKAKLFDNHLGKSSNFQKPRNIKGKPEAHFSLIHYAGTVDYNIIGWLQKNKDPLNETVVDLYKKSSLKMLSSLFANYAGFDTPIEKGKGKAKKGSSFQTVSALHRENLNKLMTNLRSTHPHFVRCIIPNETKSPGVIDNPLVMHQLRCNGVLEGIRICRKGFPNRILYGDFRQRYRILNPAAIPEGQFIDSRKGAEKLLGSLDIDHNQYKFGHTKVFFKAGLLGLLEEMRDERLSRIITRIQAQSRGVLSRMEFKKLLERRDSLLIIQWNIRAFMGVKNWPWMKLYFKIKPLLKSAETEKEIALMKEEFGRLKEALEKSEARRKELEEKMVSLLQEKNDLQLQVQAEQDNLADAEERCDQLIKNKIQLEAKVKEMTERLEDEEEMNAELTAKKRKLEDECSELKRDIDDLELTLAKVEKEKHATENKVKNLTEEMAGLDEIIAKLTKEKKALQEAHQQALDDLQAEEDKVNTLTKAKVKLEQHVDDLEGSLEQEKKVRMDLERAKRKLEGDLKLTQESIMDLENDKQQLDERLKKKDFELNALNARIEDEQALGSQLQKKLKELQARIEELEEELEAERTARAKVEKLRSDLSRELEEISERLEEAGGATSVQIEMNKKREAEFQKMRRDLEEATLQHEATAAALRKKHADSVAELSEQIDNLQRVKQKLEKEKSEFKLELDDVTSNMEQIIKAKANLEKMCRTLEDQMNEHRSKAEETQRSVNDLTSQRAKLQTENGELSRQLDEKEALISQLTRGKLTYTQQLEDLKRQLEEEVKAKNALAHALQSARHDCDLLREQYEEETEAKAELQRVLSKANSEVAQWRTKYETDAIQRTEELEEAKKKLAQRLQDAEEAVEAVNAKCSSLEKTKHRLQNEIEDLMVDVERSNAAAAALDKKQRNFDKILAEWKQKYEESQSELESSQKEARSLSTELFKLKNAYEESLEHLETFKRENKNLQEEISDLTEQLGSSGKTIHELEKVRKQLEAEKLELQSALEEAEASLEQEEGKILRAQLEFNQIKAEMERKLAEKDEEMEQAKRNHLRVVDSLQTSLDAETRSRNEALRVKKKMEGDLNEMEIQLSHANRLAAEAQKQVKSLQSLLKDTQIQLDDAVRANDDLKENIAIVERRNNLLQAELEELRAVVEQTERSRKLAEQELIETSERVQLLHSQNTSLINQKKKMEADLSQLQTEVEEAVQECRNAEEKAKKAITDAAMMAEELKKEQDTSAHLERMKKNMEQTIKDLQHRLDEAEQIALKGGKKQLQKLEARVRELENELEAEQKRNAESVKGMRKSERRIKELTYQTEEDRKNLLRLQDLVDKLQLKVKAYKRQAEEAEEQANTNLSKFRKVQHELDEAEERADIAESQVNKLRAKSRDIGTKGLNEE
Chain of bovine cardiac myofibrils (full-length cardiac myosin ATPase in the native sarcomere) (P85100 whole entry partner): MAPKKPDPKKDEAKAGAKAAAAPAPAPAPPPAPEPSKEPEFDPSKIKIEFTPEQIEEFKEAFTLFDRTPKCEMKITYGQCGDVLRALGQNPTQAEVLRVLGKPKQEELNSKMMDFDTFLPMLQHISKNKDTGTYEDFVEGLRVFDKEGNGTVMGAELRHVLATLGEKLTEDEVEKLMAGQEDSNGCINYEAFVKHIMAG
Chain of bovine cardiac myofibrils (full-length cardiac myosin ATPase in the native sarcomere) (Q3SZE5 whole entry partner): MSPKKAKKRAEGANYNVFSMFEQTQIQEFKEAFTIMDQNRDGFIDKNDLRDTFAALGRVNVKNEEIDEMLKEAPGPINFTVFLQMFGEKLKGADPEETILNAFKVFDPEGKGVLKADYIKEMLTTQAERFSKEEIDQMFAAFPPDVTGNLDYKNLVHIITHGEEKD

A word on the IC50: it is the midpoint of a concentration-inhibition curve. Usually IC10 stands for the concentration at which the effect reaches the 10% level. Consider `Cc1ncc(C(=O)N[C@@H]2CCc3cc(-c4noc(C(F)F)n4)ccc32)o1` [Compound 100, (R)—N-(5-(5-(difluoromethyl)-1,2,4-oxadiazol-3-yl)-2,3-dihydro-1H-inden-1-yl)-2-methyloxazole-5-carboxamide], for which the inhibition in vivo at 6 mg/kg in test [1] (Rattus norvegicus, 1 h, 1-2 h post dose, read-out: FS (% reduction from baseline) at 1-2 h post dose (Mean ± S.D.)) was 60 ± 4%; in test [1] (Rattus norvegicus, 4 h post dose, read-out: FS (% reduction from baseline) at 4 h post dose (Mean ± S.D.)) it was 40 ± 3%. Moreover, the IC50 in test [1] (Rattus norvegicus, oral dosing, plasma concentration at which fractional shortening is 50% of pre-dose baseline, estimated) is 9.1 µM; in test [2] it was 8.1 ± 0.26 µM; in test [4] (read-out: CDMF75 IC50), 3 µM. For the same compound, the IC10 in test [1] (oral dosing, plasma concentration at which, estimated) is 2.3 µM. Besides, the inhibition at 5 µM in test [3] is 54.7%. Besides, the “CDMF75 IC15” value in test [4] (concentration giving 15% inhibition) stood at 0.7 µM.
